Measurements published in PubChem BioAssay (NCI).
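Protocol summary: plate cells (96-well), add compound at 5 concentrations, incubate 48 h, interpolate endpoints linearly. GI50 marks 50% less growth. The concentration for full growth arrest is given as TGI.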

How the values were obtained:
Assay in all cases: inhibition of tumour cell growth, NCI panel, 48 h
786-0 renal = tested on: 786-0 renal
HCC-2998 colon = tested on: HCC-2998 colon
HS 578T breast = tested on: HS 578T breast
K-562 leukemia = tested on: K-562 leukemia
MDA-MB-435 = tested on: MDA-MB-435
NCI-H460 lung = tested on: NCI-H460 lung
OVCAR-5 ovarian = tested on: OVCAR-5 ovarian
RPMI-8226 leukemia = tested on: RPMI-8226 leukemia
SK-MEL-2 melanoma = tested on: SK-MEL-2 melanoma
SNB-75 CNS = tested on: SNB-75 CNS

SMILES	GI50 (786-0 renal) [µM]	TGI (786-0 renal) [µM]	GI50 (HCC-2998 colon) [µM]	TGI (HCC-2998 colon) [µM]	GI50 (HS 578T breast) [µM]	TGI (HS 578T breast) [µM]	GI50 (K-562 leukemia) [µM]	TGI (K-562 leukemia) [µM]	GI50 (MDA-MB-435) [µM]	TGI (MDA-MB-435) [µM]	GI50 (NCI-H460 lung) [µM]	TGI (NCI-H460 lung) [µM]	GI50 (OVCAR-5 ovarian) [µM]	TGI (OVCAR-5 ovarian) [µM]	GI50 (RPMI-8226 leukemia) [µM]	TGI (RPMI-8226 leukemia) [µM]	GI50 (SK-MEL-2 melanoma) [µM]	TGI (SK-MEL-2 melanoma) [µM]	GI50 (SNB-75 CNS) [µM]	TGI (SNB-75 CNS) [µM]
CN1CCN(CCCn2c(=O)c3sc4ncccc4c3n3nnc(-c4ccccc4)c23)CC1	7.39	14.5	6.77	13.4	6.47	16	0.881	2.05	1.18	3.01	6.88	13.7	8.85	16.9	6.1	15.8	8.8	16.7	6.82	13.3
N#CC(C#N)=CNC(N)=S		> 100		> 100		> 100		> 100		> 100		> 100		> 100		> 100		> 100		> 100
N=Nc1c(OC(=O)Nc2cccc(Cl)c2)[nH]c2ccccc12		18.2		17.5		40		> 52.8		21.3		20		31.2		10.7		24.4		17.9
OCc1ccc(-c2ccc(-c3ccc(CO)s3)o2)s1		> 85.8		4.02		86.6		38.3		17.3		2.89		0.102		62.3		89.2		80.3
Cc1ccccc1S(=O)(=O)OC1NS(=O)(=O)c2ccccc21 (stereo unspecified)		> 100		> 100		> 100		> 100		> 100		> 100		> 100		> 100		> 100		> 100
CC(C)[C@H]1COC(=O)N1[C@@H]1C(=O)N([C@@H](CCC(=O)N2CCN(C3CCCC3)CC2)C(=O)N[C@@H]2CCCc3ccccc32)[C@@H]1/C=C/c1cccc(Br)c1	2.01	4.69	1.83	3.63	2.5	9.31	2.17	4.95	1.26	2.65	1.69	3.62			1.47	3.93	1.69	3.3	1.36	3.91
COc1ccc(-c2nnc(COc3ccc(C(=O)/C=C/c4ccco4)cc3)o2)cc1	1.89	3.65	2.32	5.26	7.43	43.1	2.77	7.45	2.13	5.08	3.66	14	5.85	19.1	2.13	5.94	13.9	27.7	3.04	14.5
Fc1cc2[nH]ncc2c2c3c(c(-c4cn[nH]c4)nc12)CCCC3	2.38	> 28	1.52	5.75	0.624	3.46	1.55	> 100	0.959	3.61	0.845	4.69	2.13	12.2	1.08	13.6	0.842	3.46	0.994	2.32
CCOC(=O)c1cc2nc3ccccc3c(=O)n2c2ccccc12		> 10		> 10		> 10		> 10		> 10		> 10		> 10		> 10		> 10		> 10
Cc1cc2c(cc1Cl)SC(N(N(C)C)S(=O)(=O)c1ccc(Cl)cc1)=NS2(=O)=O	34.8	> 100	17	44.6	23.4	67.3	31.8	> 100	33.2	> 100	16.9	45.5	53.8	> 100	12.5	> 100	20.1	66.6	36	97.5
C=C(Br)C(C)(Br)CCC(Br)C(C)(C)Cl (stereo unspecified)		33.5		32.7		72		> 47.5		41.9		36.6		39.7		58.4		51.6		33.9
O=C(CCc1nnc2sc(-c3ccc(Cl)cc3Cl)nn12)c1nc2ncccc2[nH]1	1.81	3.53	1.77	3.32	2.71	8.02	2.44	> 100	1.75	3.68	1.89	3.64	2.33	5.29	1.8	7.59	2.59	7.27	0.459	3.79
CC1(C)C2CCC(=O)C1CC2 (stereo unspecified)		> 100		> 100		> 100		> 100		> 100		> 100		> 100		> 100		> 100		> 100
Cc1cc(O)c(/C=N/C(=S)NCc2ccccc2)c(=O)o1		> 100		> 100		> 100				> 100		> 100		> 100				> 100		> 100
NC1(C(=O)OCc2ccccc2)CCCC1		42.8		76.7		79.7		59.6		41.2		> 100		85.7		68.2		40.2		35.1
CC(=O)OC1=CC(n2cc(F)c(=O)[nH]c2=O)OC(C)C1=O (stereo unspecified)		> 100		> 97.2		> 100		> 100		> 100		> 100		> 100		> 100		> 100		99.5
